Laboratory results as given in patent publication US6407288B1, “Naphthylsalicylanilides as antimicrobial and antiinflammatory agents” (The Research Foundation of State University of New York, priority 2000, dated 2002).

Legend:
S. mutans = assay: MIC microdilution, gram positive; type: cell-based, Streptococcus mutans; details: Table 1, Gram Positive
Method: (§1) The MIC's for the compounds were determined by a modified microdilution tube dilution method described in “Methods for Dilution Antimicrobial Susceptibility Tests for Bacteria that Grow Aerobically” (National Committee for Clinical Laboratory Standards Approved Standards, 1997, NCCLS document M7-A4). In general the modifications were made because of the unique growth requirements for the fastidious oral organisms and for those bacteria that require anaerobic conditions. Reference is also made to “Methods for Antimicrobial Susceptibility of Anaerobic Bacteria” (National Committee for Clinical Laboratory Standards Approved Standards, 1997, NCCLS document M11-A4). Briefly, the methods were as follows. Cultures were grown for 18-24hrs (aerobic bacteria) or 48-72 hrs (anaerobic bacteria) in the appropriate medium. For aerobic bacteria full strength brain heart infusion medium (BHI, Difco) was used. For anaerobic bacteria, half strength BHI (18.5 g/L) was supplemented by adding yeast extract (10 g/L), hemin (0.29 mL of a stock solution containing 0.1 g/200 mL dH2O) and menadione (15 mL of a stock solution containing 0.15 mL in 30 mL 95% EtOH) was used. Initial cultures were diluted to approximately 1×10^8 CFU/mL for use as an inoculum. Each assay received 10 μL of the inoculum. The drugs were prepared from a stock solution contained in dimethyl sulfoxide (DMSO) and diluted into the culture medium. Final concentrations of the drugs ranged from 50 to 0.05 μg/assay. The tests were run in duplicate and were incubated appropriately with regard to oxygen requirements for 24 to 48 hrs as required. Anaerobic incubation was an atmosphere of 5% CO2, 10% H2, with the balance N2. The lowest concentration of an antimicrobial agent at which no visible growth is noted was referred to as the MIC.

S. sanguis = assay: MIC microdilution, gram positive; type: cell-based, Streptococcus sanguis; details: Table 1, Gram Positive
Method: as §1

S.salivarius = assay: MIC microdilution, gram positive; type: cell-based, Streptococcus salivarius; details: Table 1, Gram Positive
Method: as §1

P. acnes 11828 = assay: MIC microdilution, gram positive; type: cell-based, Propionibacterium acnes; details: Table 1, Gram Positive
Method: as §1

P. acnes 6922 = assay: MIC microdilution, gram positive; type: cell-based, Propionibacterium acnes; details: Table 1, Gram Positive
Method: as §1

A. viscosus = assay: MIC microdilution, gram positive; type: cell-based, Actinomyces viscosus; details: Table 2, Gram Positive
Method: as §1

S. aureus = assay: MIC microdilution, gram positive; type: cell-based, Staphlococcus aureus
Method: (§2) The MIC's for the compounds were determined by a modified microdilution tube dilution method described in “Methods for Dilution Antimicrobial Susceptibility Tests for Bacteria that Grow Aerobically” (National Committee for Clinical Laboratory Standards Approved Standards, 1997, NCCLS document M7-A4). In general the modifications were made because of the unique growth requirements for the fastidious oral organisms and for those bacteria that require anaerobic conditions. Reference is also made to “Methods for Antimicrobial Susceptibility of Anaerobic Bacteria” (National Committee for Clinical Laboratory Standards Approved Standards, 1997, NCCLS document M11-A4).
(§3) Briefly, the methods were as follows. Cultures were grown for 18-24hrs (aerobic bacteria) or 48-72 hrs (anaerobic bacteria) in the appropriate medium. For aerobic bacteria full strength brain heart infusion medium (BHI, Difco) was used. For anaerobic bacteria, half strength BHI (18.5 g/L) was supplemented by adding yeast extract (10 g/L), hemin (0.29 mL of a stock solution containing 0.1 g/200 mL dH2O) and menadione (15 mL of a stock solution containing 0.15 mL in 30 mL 95% EtOH) was used. Initial cultures were diluted to approximately 1×10^8 CFU/mL for use as an inoculum. Each assay received 10 μL of the inoculum. The drugs were prepared from a stock solution contained in dimethyl sulfoxide (DMSO) and diluted into the culture medium. Final concentrations of the drugs ranged from 50 to 0.05 μg/assay. The tests were run in duplicate and were incubated appropriately with regard to oxygen requirements for 24 to 48 hrs as required. Anaerobic incubation was an atmosphere of 5% CO2, 10% H2, with the balance N2. The lowest concentration of an antimicrobial agent at which no visible growth is noted was referred to as the MIC.
(§4) This embodiment describes the sensitivity of various staphylococcus strains to the compounds of the present invention. The staphylococcus species R is a strain 00-045-1209 from the Children's Hospital in Buffalo. It was isolated from the peritoneal cavity (fluid culture) of an individual. It was coagulase negative. The sensitivity of this strain was tested agaisnt several known antibiotics.

Lact 7496 = assay: MIC microdilution, gram positive; type: cell-based, Lactobacillus rhamnosus (casei); details: Table 2, Gram Positive
Method: as §1

M. luteus = assay: MIC microdilution, gram positive; type: cell-based, Micrococcus luteus; details: Table 2, Gram Positive
Method: as §1

Fuso. 25586 = assay: MIC microdilution, gram negative; type: cell-based, Fusobacterium nucleatum
Method: (§5) The MIC's for the compounds were determined by a modified microdilution tube dilution method described in “Methods for Dilution Antimicrobial Susceptibility Tests for Bacteria that Grow Aerobically” (National Committee for Clinical Laboratory Standards Approved Standards, 1997, NCCLS document M7-A4). In general the modifications were made because of the unique growth requirements for the fastidious oral organisms and for those bacteria that require anaerobic conditions. Reference is also made to “Methods for Antimicrobial Susceptibility of Anaerobic Bacteria” (National Committee for Clinical Laboratory Standards Approved Standards, 1997, NCCLS document M11-A4). Briefly, the methods were as follows. Cultures were grown for 18-24hrs (aerobic bacteria) or 48-72 hrs (anaerobic bacteria) in the appropriate medium. For aerobic bacteria full strength brain heart infusion medium (BHI, Difco) was used. For anaerobic bacteria, half strength BHI (18.5 g/L) was supplemented by adding yeast extract (10 g/L), hemin (0.29 mL of a stock solution containing 0.1 g/200 mL dH2O) and menadione (15 mL of a stock solution containing 0.15 mL in 30 mL 95% EtOH) was used. Initial cultures were diluted to approximately 1×10^8 CFU/mL for use as an inoculum. Each assay received 10 μL of the inoculum. The drugs were prepared from a stock solution contained in dimethyl sulfoxide (DMSO) and diluted into the culture medium. Final concentrations of the drugs ranged from 50 to 0.05 μg/assay. The tests were run in duplicate and were incubated appropriately with regard to oxygen requirements for 24 to 48 hrs as required. Anaerobic incubation was an atmosphere of 5% CO2, 10% H2, with the balance N2. The lowest concentration of an antimicrobial agent at which no visible growth is noted was referred to as the MIC. […] The method used was the same as described in Example 1.

Aa Y4 = assay: MIC microdilution, gram negative; type: cell-based, Actinobacillus actinomycetemcomitans
Method: as §5

P. ging 381 = assay: MIC microdilution, gram negative; type: cell-based, Porphyromonas gingivalis
Method: as §5

Pg 53977 = assay: MIC microdilution, gram negative; type: cell-based, Porphyromonas gingivalis
Method: as §5

B. fragilis = assay: MIC microdilution, gram negative; type: cell-based, Bacteroides fraglis
Method: as §5

Str. pn. R = assay: Mean Streptococcus MIC; type: cell-based; details: Table 5, mean; strain resistant to penicillin and erythromycin
Method: as §2, §3
(§6) This embodiment illustrates the efficacy of the compounds of the present invention against Streptococcus strains. One of the strains, Str.pn.R was obtained from the Children's Hospital in Buffalo (strain 00-041-0614). […] The sensitivity of this strain was tested against several known antibiotics.

Str. pn = assay: Mean Streptococcus MIC; type: cell-based; details: Table 5, mean
Method: as §2, §3, §6

Str. pyo = assay: Mean Streptococcus MIC; type: cell-based; details: Table 5, mean
Method: as §2, §3, §6

S. species R = assay: Staphylococcus MIC; type: cell-based, staphylococcus species R; details: second Table 5 (Example 5); strain 00-045-1209
Method: as §2, §3, §4

[1] = Table 3 printed a second time, Gram Negative

SMILES: N#Cc1cccc(NC(=O)c2cc(C(=O)c3ccc4ccccc4c3)ccc2O)c1 [NA2mC]
- MIC S. mutans (S. mutans): 6.3 micrograms/ml
- MIC S. sanguis (S. sanguis): 6.3 micrograms/ml
- MIC S.salivarius (S.salivarius): 50 micrograms/ml
- MIC P. acnes 11828 (P. acnes 11828): 12.5 micrograms/ml
- MIC P. acnes 6922 (P. acnes 6922): 6.3 micrograms/ml
- MIC A. viscosus (A. viscosus): 1.6 micrograms/ml
- MIC S. aureus (S. aureus; Table 2, Gram Positive): NE (NE indicates that the drug was not effective at a concentration >50 micrograms/ml)
- MIC S. aureus (S. aureus; second Table 5 (Example 5)): NE (NE indicates that the drug was not effective at a concentration >50 micrograms/ml)
- MIC Lact 7496 (Lact 7496): 12.5 micrograms/ml
- MIC M. luteus (M. luteus): 3.1 micrograms/ml
- MIC Fuso. 25586 (Fuso. 25586; Table 3, Gram Negative): NE (NE indicates that the drug was not effective at a concentration >50 micrograms/ml)
- MIC Fuso. 25586 (Fuso. 25586; [1]): NE (NE indicates that the drug was not effective at a concentration >50 micrograms/ml)
- MIC Aa Y4 (Aa Y4; Table 3, Gram Negative): NE (NE indicates that the drug was not effective at a concentration >50 micrograms/ml)
- MIC Aa Y4 (Aa Y4; [1]): NE (NE indicates that the drug was not effective at a concentration >50 micrograms/ml)
- MIC P. ging 381 (P. ging 381; Table 3, Gram Negative): 0.8 micrograms/ml
- MIC P. ging 381 (P. ging 381; [1]): 0.8 micrograms/ml
- MIC Pg 53977 (Pg 53977; Table 3, Gram Negative): 0.8 micrograms/ml
- MIC Pg 53977 (Pg 53977; [1]): 0.8 micrograms/ml
- MIC B. fragilis (B. fragilis; Table 3, Gram Negative): 3.1 micrograms/ml
- MIC B. fragilis (B. fragilis; [1]): 3.1 micrograms/ml
- Mean Streptococcus MIC values Str. pn. R (Str. pn. R): 6.25 micrograms/ml
- Mean Streptococcus MIC values Str. pn (Str. pn): 0.91 micrograms/ml
- Mean Streptococcus MIC values Str. pyo (Str. pyo): NE (NE indicates that the drug was not effective at a concentration >50 micrograms/ml)
- MIC S. species R (S. species R): NE (NE indicates that the drug was not effective at a concentration >50 micrograms/ml)

SMILES: CCCCCCCCCCCCS(=O)(=O)c1ccc(O)c(C(=O)Nc2cccc(C(F)(F)F)c2)c1 [TMF-12, reference compound]
- MIC S. mutans (S. mutans): NE (NE indicates that the drug was not effective at a concentration >50 micrograms/ml)
- MIC S. sanguis (S. sanguis): 12.5 micrograms/ml
- MIC S.salivarius (S.salivarius): NE (NE indicates that the drug was not effective at a concentration >50 micrograms/ml)
- MIC P. acnes 11828 (P. acnes 11828): 0.2 micrograms/ml
- MIC P. acnes 6922 (P. acnes 6922): 0.4 micrograms/ml
- MIC A. viscosus (A. viscosus): 1.6 micrograms/ml
- MIC S. aureus (S. aureus; Table 2, Gram Positive): NE (NE indicates that the drug was not effective at a concentration >50 micrograms/ml)
- MIC S. aureus (S. aureus; second Table 5 (Example 5)): NE (NE indicates that the drug was not effective at a concentration >50 micrograms/ml)
- MIC Lact 7496 (Lact 7496): 3.1 micrograms/ml
- MIC M. luteus (M. luteus): 0.8 micrograms/ml
- MIC Fuso. 25586 (Fuso. 25586; Table 3, Gram Negative): NE (NE indicates that the drug was not effective at a concentration >50 micrograms/ml)
- MIC Fuso. 25586 (Fuso. 25586; [1]): NE (NE indicates that the drug was not effective at a concentration >50 micrograms/ml)
- MIC Aa Y4 (Aa Y4; Table 3, Gram Negative): NE (NE indicates that the drug was not effective at a concentration >50 micrograms/ml)
- MIC Aa Y4 (Aa Y4; [1]): NE (NE indicates that the drug was not effective at a concentration >50 micrograms/ml)
- MIC P. ging 381 (P. ging 381; Table 3, Gram Negative): 0.4 micrograms/ml
- MIC P. ging 381 (P. ging 381; [1]): 0.4 micrograms/ml
- MIC Pg 53977 (Pg 53977; Table 3, Gram Negative): 0.4 micrograms/ml
- MIC Pg 53977 (Pg 53977; [1]): 0.4 micrograms/ml
- MIC B. fragilis (B. fragilis; Table 3, Gram Negative): NE (NE indicates that the drug was not effective at a concentration >50 micrograms/ml)
- MIC B. fragilis (B. fragilis; [1]): NE (NE indicates that the drug was not effective at a concentration >50 micrograms/ml)
- Mean Streptococcus MIC values Str. pn. R (Str. pn. R): 0.78 micrograms/ml
- Mean Streptococcus MIC values Str. pn (Str. pn): 0.65 micrograms/ml
- Mean Streptococcus MIC values Str. pyo (Str. pyo): 0.47 micrograms/ml
- MIC S. species R (S. species R): NE (NE indicates that the drug was not effective at a concentration >50 micrograms/ml)
